Publication PMC10458458, “Characterization of Anticancer Effects of the Analogs of DJ4, a Novel Selective Inhibitor of ROCK and MRCK Kinases” (Pharmaceuticals, 2023)
Entries after “also recorded” stand apart in the source; their conditions may differ.

Columns and labels:
ROCK2 = ROCK2 (Homo sapiens, UniProt O75116); assay: Cell-free biochemical kinase activity assay (pMYPT1 immunoblot); design: purchased Invitrogen
Description: Cell-free biochemical kinase inhibitory activity of these compounds was evaluated at 1 µM concentration using the previously described ROCK1 kinase activity assay. Among the 27 analogs, we identified four analogs (DJ110, DJ-Allyl, DJE4, and DJ-Morpholine) with >50% inhibition of MYPT1 phosphorylation (Supplementary Figure S1). These four compounds were selected for further evaluation at 1 µM and 0.1 µM for their in vitro inhibitory activity against ROCK1, ROCK2, MRCKα, and MRCKβ kinases.
Cell-free biochemical kinase activity was assayed using published procedures. Briefly, recombinant ROCK1 (9.48 nM) or ROCK2 (8.26 nM; Invitrogen, Waltham, MA, USA) was incubated in the presence of 0.1 and 1 µM concentrations of DJ4 analogs or DMSO in ROCK-assay buffer at room temperature (RT) for 10 min. MRCKα and MRCKβ (2 ng/µL; Invitrogen) assays were performed in the assay buffer recommended by the manufacturer. Recombinant MYPT1 (20 ng/µL; Millipore) and ATP (5 µM) were added to initiate the reaction. The reaction was incubated at 30 °C for 20 min. Western blot analysis of these samples for phosphorylation of MYPT1 was performed as per the method mentioned in our earlier publication. Briefly, an equal amount of sample was loaded on Bis-Tris gel (Novex, Life Technologies, Carlsbad, CA, USA), proteins were electrophoresed and transferred to PVDF membranes. The blots were probed with anti-pMYPT1 (Thr696) or anti-MYPT1 (Millipore) antibodies.

H460 = assay: MTT cytotoxicity assay, 72 h; format: cell-based; settings: Homo sapiens, NCI-H460, H460 NSCLC cells, plated to confluence, read-out: IC50 (mean cytotoxic concentration, MTT)
Description: To determine whether the effects on cell viability in AML cells were related to the specific cancer subtypes, or to differences in temporal response to DJ4, we examined whether DJ4 affected the viability of various NSCLC cells over longer periods of drug exposure. MTT assays were performed on H1299, H226, A549, H522, H23, and H460 NSCLC cell lines. […] Similarly, the cell viability of MDA-MB-231 breast cancer cells was assessed by counting live/dead cell populations after a 24-h treatment with 1–10 µM concentrations of DJ4. A concentration-dependent increase in cell death from 29% (1 µM) to 47% (10 µM) was observed (Figure 2B).
The cytotoxic effect of DJ4 was studied in H1299, H226, A549, H522, H23, and H460 non-small cell lung cancer cells. The cells were seeded into 96-well plates with confluence ([…]). The cells were further treated with DMSO or DJ4 for 72 h. To study the effects of analogs, A549, A375M, and MDA-MB-231 cells were plated with low density (2000 cells/well) in a 96-well plate and grown overnight at 37 °C (with 5% CO2). Cells were treated with the analogs at the concentration of 0–10 µM for 48 h. At the end of the treatment period, cells were incubated with a tetrazolium dye MTT (3-(4,5-dimethylthiazol-2-yl)-2,5-diphenyltetrazolium bromide) reagent (Sigma) at 37 °C for 3 h to develop formazan crystals. The media was siphoned off and crystals were dissolved in DMSO and mixed gently on rocker for 5 min. Absorbance was read at 570 nm and 630 nm (background) wavelength. IC50 values were calculated from non-linear regression curve fit by using GraphPad Prism 5.0 software.

[1] = tested on: NCI-60 human cancer cell line panel; assay: NCI-60 single concentration screen, whole panel; format: cell-based; settings: single concentration 10 µM
From the text: The selected active compounds were screened at NCI, as a part of In Vitro Cell Line Screening Project (IVCLSP), for their effect on cell growth in 60 different cancer cell lines. The 60 human cancer cell line panel included leukemia, melanoma, non-small cell lung cancer, colon, central nervous system (CNS), ovarian, renal, prostate, and breast cancer cell lines. The detailed procedure and applications of NCI-60 cell line screening can be found at https://dtp.cancer.gov/discovery_development/nci-60/default.htm (accessed on 9 January 2023). Briefly, cells were plated in 96-well plates and incubated for 24 h. One set of cells was fixed with trichloroacetic acid at time 0 h (Tz), and SRB (sulphorhodamine B) assays were performed to quantify the cells. The remaining set of cells were treated with 10 µM single concentration of each compound and incubated for 48 h (Te) after which the cells were fixed, and the SRB assays were performed. Data are presented as percent growth relative to the control as 100% according to the following calculations:
When Te >/= Tz. Growth(%)=Te−Tz/C−Tz∗100 and when Te < Tz. (1) Growth(%)=Te−Tz/Tz∗100
Values between 0–100 indicate cell growth, zero (0) indicates no cell growth, values < 0 indicate cell death.

[2] = Solubility in culture media at 10 µM (observation); format: physicochemical; settings: NCI-60 screening
Description: To study the effectiveness of these analogs in a vast range of cancer cell lines, the compounds were subjected to cell viability screening in the NCI-60 human cancer cell line panel representing nine different cancer types (Supplementary Figure S2). Testing of the compounds in such a wide range of cancer types helps identify sensitivity and selectivity of specific types of cancers to the novel compounds. The initial screening was performed at a single concentration of 10 µM. At 10 µM, both DJ110 and DJ-Morpholine were insoluble and were, therefore, ineffective. The parental DJ4 compound was effective in a wide spectrum of cancer cell lines, with breast cancer, NSCLC, and central nervous system cancers displaying the most consistent response. The ovarian cancer cell line NCI/ADR-RES and HCC-2998 colon cancer cells were relatively resistant to DJ4 (IC50 > 10 µM) (Supplementary Figure S2). […] NCI/ADR-RES (ovarian), RPMI-8226, and K-562 (leukemia) cell lines were relatively resistant (29%, 29%, 26% increase in cell number) to DJE4. […] Two CNS cell lines, SNB-75 and SF-539, were the most sensitive in which DJ-Allyl induced the cell death (60% reduction in cell number). NCI/ADR-RES (ovarian), MALME-3M (melanoma), HCC-2998 (colon), RPMI-8226, and K-562 (leukemia) were relatively resistant (~40% increase in cell number) to DJ-Allyl. […]

Sequence of ROCK2 (O75116 whole entry): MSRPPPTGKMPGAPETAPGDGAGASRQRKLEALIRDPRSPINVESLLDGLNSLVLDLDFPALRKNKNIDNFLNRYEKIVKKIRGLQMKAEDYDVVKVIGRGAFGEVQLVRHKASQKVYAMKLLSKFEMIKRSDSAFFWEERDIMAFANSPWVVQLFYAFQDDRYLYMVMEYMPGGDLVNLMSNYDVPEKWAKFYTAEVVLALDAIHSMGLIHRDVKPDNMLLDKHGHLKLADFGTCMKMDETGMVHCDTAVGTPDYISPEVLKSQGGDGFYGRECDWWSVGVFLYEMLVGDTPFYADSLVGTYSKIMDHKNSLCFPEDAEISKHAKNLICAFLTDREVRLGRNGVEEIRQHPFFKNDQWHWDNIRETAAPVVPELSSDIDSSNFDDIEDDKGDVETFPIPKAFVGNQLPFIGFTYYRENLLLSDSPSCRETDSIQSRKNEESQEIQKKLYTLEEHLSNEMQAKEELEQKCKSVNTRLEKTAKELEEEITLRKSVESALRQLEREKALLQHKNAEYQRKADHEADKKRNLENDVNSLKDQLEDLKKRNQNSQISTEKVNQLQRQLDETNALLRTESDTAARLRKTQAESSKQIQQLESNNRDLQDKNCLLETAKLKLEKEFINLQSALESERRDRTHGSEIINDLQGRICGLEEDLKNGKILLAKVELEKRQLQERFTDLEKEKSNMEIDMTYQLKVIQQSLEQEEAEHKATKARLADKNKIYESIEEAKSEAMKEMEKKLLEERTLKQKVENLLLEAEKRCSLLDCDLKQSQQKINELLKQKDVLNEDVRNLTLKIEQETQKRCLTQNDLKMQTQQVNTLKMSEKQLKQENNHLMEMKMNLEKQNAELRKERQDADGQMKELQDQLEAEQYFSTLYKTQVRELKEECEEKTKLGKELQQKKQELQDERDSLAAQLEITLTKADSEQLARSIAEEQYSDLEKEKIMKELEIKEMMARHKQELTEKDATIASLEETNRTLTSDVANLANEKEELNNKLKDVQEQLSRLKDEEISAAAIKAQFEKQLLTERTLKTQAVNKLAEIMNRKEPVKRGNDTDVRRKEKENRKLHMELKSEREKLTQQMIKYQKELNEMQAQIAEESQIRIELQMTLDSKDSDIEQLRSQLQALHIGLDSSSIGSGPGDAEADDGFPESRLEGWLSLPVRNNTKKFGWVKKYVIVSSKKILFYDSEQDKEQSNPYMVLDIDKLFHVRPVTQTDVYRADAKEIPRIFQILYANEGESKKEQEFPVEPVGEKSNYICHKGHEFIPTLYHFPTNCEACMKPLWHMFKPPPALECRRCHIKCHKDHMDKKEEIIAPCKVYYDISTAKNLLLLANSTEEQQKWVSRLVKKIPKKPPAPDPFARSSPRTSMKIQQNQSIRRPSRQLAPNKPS

Compound	inhibition of kinase activity (qualitative immunoblot) (ROCK2; ROCK2, 1 µM)	IC50 (H460) [µM]	inhibition of kinase activity (qualitative immunoblot) (ROCK2; ROCK2, 0.1 µM)	effectiveness in NCI-60 screening [1]	solubility at 10 µM in culture media [2]
C=CC/N=C1\NC(=O)/C(=C\c2c[nH]c3ncccc23)S1 [DJ-Allyl]	almost completely inhibited	–	–	–	–
O=C1N/C(=N\CCc2ccccc2)S/C1=C/c1c[nH]c2ncccc12 [DJ4]	significantly inhibit	9.53	ineffective	–	–
O=C1N/C(=N\Cc2ccccc2)S/C1=C/c1c[nH]c2ncccc12 [DJ110]	significantly inhibit	–	significantly inhibited	ineffective	insoluble; also recorded: sparingly soluble
O=C1N/C(=N\CCN2CCOCC2)S/C1=C/c1c[nH]c2ncccc12 [DJ-Morpholine]	almost completely inhibited	–	–	ineffective	insoluble; also recorded: sparingly soluble
CC/N=C1\NC(=O)/C(=C\c2c[nH]c3ncccc23)S1 [DJE4]	almost completely inhibited	–	–	–	–
